{"source": "patent US8207119B2", "about": "“Ophthalmological composition” (Nihon Tenganyaku Kenkyusho Co., Ltd., priority 2002, dated 2012)", "key": {"[1]": {"test_system": "rabbit corneal wound model", "test": "Corneal wound healing promotion action 1 (in vivo), approx. 6 mm corneal epithelial abrasion", "design": "species or system Japanese white rabbit", "conditions": "5 μM eye drop, 30 μl per instillation; 0 hr after abrasion; mean ± SD, n=6", "procedure": "(2) Corneal Wound Healing Promotion Action 1 (In Vivo)\nUsing a male Japanese white rabbit, a wound of approximately 6 mm in diameter was produced in the cornea by inducing corneal epithelial abrasion in accordance with the method of Cintron et al. (Ophthalmic Res., 11, pp. 90-96 (1979)). The wound area was measured using the fluorescein-stained area as an index. The effects of the test compound on corneal wound healing were examined.\nThe eye drops containing the respective concentrations of the test compound were instilled (30 μl at a time) at 0, 3, 6, 9, 12, 18, 24, 27, 30, 33, 36, 42, and 48 hours after inducing corneal epithelial abrasion. In measuring the wound area, fluorescein staining was carried out and a photograph of the cornea was measured. The fluorescein-stained area of the photographed cornea was computed using an image analysis processing system.\n(§1) In Tables 1 and 2, the respective values indicate the mean value±standard deviation (n=6). Statistical analysis was carried out using Dunnett's multiple comparison with respect to PBS with the area of the corneal wound portion immediately after (0 hours after) corneal epithelial abrasion being set to 100% (*p<0.05, **p<0.01; vs. control)."}, "[2]": {"test_system": "rabbit corneal wound model", "test": "Corneal wound healing promotion action 2 (in vivo), approx. 8 mm corneal epithelial abrasion", "design": "species or system Japanese white rabbit", "conditions": "0.3% eye drop, 25 μl per instillation; 0 hr after abrasion; mean ± SD, n=6", "procedure": "(3) Corneal Wound Healing Promotion Action 2 (In vivo)\nUsing the same method as (2) above, corneal epithelial abrasion was induced in a Japanese white rabbit to produce a wound of approximately 8 mm in diameter in the cornea. The wound area was measured using the fluorescein-stained area as an index to examine the effects on corneal wound healing.\nThe eye drops containing the respective concentrations of the test compound were instilled (25 μl at a time) at 0, 6, 12, 18, 24, 30, 36, 42, 48, and 54 hours after induction corneal epithelial abrasion. In measuring the wound area, fluorescein staining was carried out and a photograph of the cornea was measured. The fluorescein-stained area of the photographed cornea was computed using an image analysis processing system.\nas §1, with “Tables 3” for “Tables 1”, “and 4,” for “and 2,”, “to physiological saline” for “to PBS”"}}}
{"substance": "EGF: polypeptide with a molecular weight of 6000, mitosis-promoting growth factor for corneal epithelium (NSDSECPLSHDGYCLHDGVCMYIEALDKYACNCVVGYIGERCQYRDLKWWELR; Epidermal growth factor; UniProt P01133 971-1023, looked up)", "values": [{"measurement": "Healing ratio (%)", "setting": "[1]", "value": 0, "unit": "%"}]}
{"substance": "hyaluronic acid", "values": [{"measurement": "Healing ratio (%)", "setting": "[2]", "value": 0, "unit": "%"}]}
